Experimental data as given in patent US10590143B2, “Herbicidally active (alkynyl-phenyl)-substituted cyclic dione compounds and derivatives thereof” (Syngenta Limited, priority 2013, dated 2020).
Read-outs that look alike come from different tables or passages of the source.

What was measured:
Test in all cases: Biological Example 1 glasshouse assay for herbicidal activity
Type in all cases: in vivo
[1] = test system: Abutilon theophrasti (ABUTH); settings: 312 h, 13 days after application, read-out: percentage phytotoxicity ABUTH
Summary of the method: (§1)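 Herbicide was applied as an aqueous acetone spray with 0.5% Tween 20 to potted plants either pre-emergence or post-emergence. Injury relative to undamaged plants was rated visually as a percentage 13 days later.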

[2] = test system: Alopecurus myosuroides (ALOMY); settings: 312 h, 13 days after application, read-out: percentage phytotoxicity ALOMY
Summary of the method: as §1

[3] = test system: Amaranthus retroflexus (AMARE); settings: Amaranthus retroflexus, 312 h, 13 days after application, read-out: percentage phytotoxicity AMARE
Summary of the method: as §1

[4] = test system: Echinochloa crus-galli (ECHCG); settings: Echinochloa crus-galli, 312 h, 13 days after application, read-out: percentage phytotoxicity ECHCG
Summary of the method: as §1

[5] = test system: Setaria faberi (SETFA); settings: 312 h, 13 days after application, read-out: percentage phytotoxicity SETFA
Summary of the method: as §1

[6] = test system: Zea mays (ZEAMX, corn, maize, e.g. volunteer corn); settings: Zea mays, 312 h, 13 days after application, read-out: percentage phytotoxicity ZEAMX
Summary of the method: as §1

[7] = post-emergence, post-emergence, 8 g/ha

Row | SMILES | pest or weed control at 250 g/ha ([1]; post-emergence, post-emergence) [%] | pest or weed control at 30 g/ha ([1]; pre-emergence, pre-emergence) [%] | pest or weed control at 250 g/ha ([1]; pre-emergence, pre-emergence) [%] | pest or weed control at 250 g/ha ([2]; post-emergence) [%] | pest or weed control at 30 g/ha ([2]; pre-emergence) [%] | pest or weed control at 250 g/ha ([2]; pre-emergence) [%] | pest or weed control at 250 g/ha ([3]; post-emergence, post-emergence) [%] | pest or weed control at 30 g/ha ([3]; pre-emergence, pre-emergence) [%] | pest or weed control at 250 g/ha ([3]; pre-emergence, pre-emergence) [%] | pest or weed control at 250 g/ha ([4]; post-emergence, post-emergence) [%] | pest or weed control at 30 g/ha ([4]; pre-emergence, pre-emergence) [%] | pest or weed control at 250 g/ha ([4]; pre-emergence, pre-emergence) [%] | pest or weed control at 250 g/ha ([5]; post-emergence, post-emergence) [%] | pest or weed control at 30 g/ha ([5]; pre-emergence, pre-emergence) [%] | pest or weed control at 250 g/ha ([5]; pre-emergence, pre-emergence) [%] | pest or weed control at 250 g/ha ([6]; post-emergence, post-emergence) [%] | pest or weed control at 30 g/ha ([6]; pre-emergence, pre-emergence) [%] | pest or weed control at 250 g/ha ([6]; pre-emergence, pre-emergence) [%] | pest or weed control at 30 g/ha ([1]; post-emergence, post-emergence) [%] | pest or weed control at 30 g/ha ([2]; post-emergence) [%] | other results
1 | COc1cc(C#CCl)cc(F)c1C1C(=O)C2CCC(C2)C1=O (stereo not drawn) [Compound A8, 3-[4-(2-chloroethynyl)-2-fluoro-6-methoxy-phenyl]bicyclo[3.2.1]octane-2,4-dione] | 0 | 10 | 0 | 70 | 40 | 60 | 10 | 50 | 40 | 70 | 30 | 60 | 70 | 60 | 60 | 50 | 60 | 70 | – | – | –
2 | CC#Cc1cc(F)c(C2C(=O)C3CCC(C3)C2=O)c(OC(F)F)c1 (stereo not drawn) [Compound A7] | 70 | 20 | 30 | 90 | 60 | 100 | 60 | 40 | 70 | 100 | 60 | 100 | 90 | 50 | 70 | 100 | 80 | 100 | 0 | 60 | pest or weed control at 30 g/ha ([3]; post-emergence, post-emergence): 50%; pest or weed control at 30 g/ha ([4]; post-emergence, post-emergence): 90%; pest or weed control at 30 g/ha ([5]; post-emergence, post-emergence): 70%; pest or weed control at 30 g/ha ([6]; post-emergence, post-emergence): 80%
3 | CC#Cc1cc(F)c(C2=C(OC(=O)C(C)(C)C)C3CCC(C3)C2=O)c(OC)c1 (stereo not drawn) [Compound P1] | 80 | 10 | 30 | 100 | 70 | 100 | 40 | 50 | 70 | 100 | 90 | 100 | 100 | 40 | 80 | 100 | 90 | 100 | 0 | 90 | pest or weed control at 8 g/ha [1, 7]: 0%; pest or weed control at 8 g/ha ([2]; post-emergence, 8 g/ha): 60%; pest or weed control at 8 g/ha [3, 7]: 0%; pest or weed control at 30 g/ha ([3]; post-emergence, post-emergence): 10%; pest or weed control at 8 g/ha [4, 7]: 80%; pest or weed control at 30 g/ha ([4]; post-emergence, post-emergence): 100%; pest or weed control at 8 g/ha [5, 7]: 70%; pest or weed control at 30 g/ha ([5]; post-emergence, post-emergence): 80%; pest or weed control at 8 g/ha [6, 7]: 100%; pest or weed control at 30 g/ha ([6]; post-emergence, post-emergence): 100%
